For data set [1], the target named is Cyclin-dependent kinase 5/CDK5 activator 1 (Homo sapiens, UniProt Q00535). The data set is described as follows: biochemical. It counts as cell-based, Sf9.
Data set [2] concerns the target Casein kinase I isoform epsilon (Homo sapiens, UniProt P49674). As to the kind of experiment: biochemical. It counts as cell-based, Sf9.
The target of data set [3] is T1, Dual specificity tyrosine-phosphorylation-regulated kinase 3 (Homo sapiens, UniProt O43781).
T1 sequence (O43781 whole entry): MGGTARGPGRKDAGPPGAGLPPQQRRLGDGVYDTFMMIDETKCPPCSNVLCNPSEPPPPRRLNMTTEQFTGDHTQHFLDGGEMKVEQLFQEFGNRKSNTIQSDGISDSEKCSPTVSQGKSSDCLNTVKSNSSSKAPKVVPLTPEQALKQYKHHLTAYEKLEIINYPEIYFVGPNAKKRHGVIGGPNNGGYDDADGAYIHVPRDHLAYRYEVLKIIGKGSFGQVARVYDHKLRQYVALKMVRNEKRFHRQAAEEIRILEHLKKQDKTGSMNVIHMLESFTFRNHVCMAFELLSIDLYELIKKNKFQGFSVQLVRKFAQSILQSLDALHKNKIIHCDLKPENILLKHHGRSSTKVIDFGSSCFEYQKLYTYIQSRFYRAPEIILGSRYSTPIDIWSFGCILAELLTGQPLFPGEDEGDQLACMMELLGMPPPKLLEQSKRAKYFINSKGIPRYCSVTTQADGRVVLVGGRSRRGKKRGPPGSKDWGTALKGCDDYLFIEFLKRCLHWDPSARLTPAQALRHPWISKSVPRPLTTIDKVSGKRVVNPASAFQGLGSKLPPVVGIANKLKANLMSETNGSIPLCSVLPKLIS
As to the kind of experiment: biochemical. The class given is cell-based, Sf9.

Data set [4] in a line: in vitro. The following applies: mouse, ht-22.
Data set [5] deals with T2, Dual specificity protein kinase CLK1 (Homo sapiens, UniProt P49759). As to the kind of experiment: biochemical. It counts as cell-based, Sf9.
Data set [6] has as its target Dual specificity protein kinase CLK3 (Homo sapiens, UniProt P49761). The data set is described as follows: biochemical. It counts as cell-based, Sf9.
For data set [7], the target named is T3, Dual specificity tyrosine-phosphorylation-regulated kinase 2 (Homo sapiens, UniProt Q92630).
T3 sequence (Q92630 whole entry): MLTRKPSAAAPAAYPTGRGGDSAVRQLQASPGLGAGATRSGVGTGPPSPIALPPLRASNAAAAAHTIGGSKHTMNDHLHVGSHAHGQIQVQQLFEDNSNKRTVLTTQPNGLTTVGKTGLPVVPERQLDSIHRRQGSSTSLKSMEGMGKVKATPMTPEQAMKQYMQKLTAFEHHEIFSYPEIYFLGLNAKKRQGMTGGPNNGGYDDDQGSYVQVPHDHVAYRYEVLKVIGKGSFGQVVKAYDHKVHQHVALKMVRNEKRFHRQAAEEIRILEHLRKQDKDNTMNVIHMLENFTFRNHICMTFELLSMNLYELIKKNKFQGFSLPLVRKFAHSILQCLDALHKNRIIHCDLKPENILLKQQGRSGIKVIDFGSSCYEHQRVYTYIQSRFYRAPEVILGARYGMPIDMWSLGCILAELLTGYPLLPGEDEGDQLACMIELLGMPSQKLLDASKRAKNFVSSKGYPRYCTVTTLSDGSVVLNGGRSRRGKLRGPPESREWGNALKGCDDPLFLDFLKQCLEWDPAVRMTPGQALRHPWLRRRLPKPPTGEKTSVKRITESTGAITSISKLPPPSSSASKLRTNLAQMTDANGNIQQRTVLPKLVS
As to the kind of experiment: biochemical. It counts as cell-based, Sf9.

In data set [8] the target is T4, Dual specificity tyrosine-phosphorylation-regulated kinase 4 (Homo sapiens, UniProt Q9NR20).
T4 sequence (Q9NR20 whole entry): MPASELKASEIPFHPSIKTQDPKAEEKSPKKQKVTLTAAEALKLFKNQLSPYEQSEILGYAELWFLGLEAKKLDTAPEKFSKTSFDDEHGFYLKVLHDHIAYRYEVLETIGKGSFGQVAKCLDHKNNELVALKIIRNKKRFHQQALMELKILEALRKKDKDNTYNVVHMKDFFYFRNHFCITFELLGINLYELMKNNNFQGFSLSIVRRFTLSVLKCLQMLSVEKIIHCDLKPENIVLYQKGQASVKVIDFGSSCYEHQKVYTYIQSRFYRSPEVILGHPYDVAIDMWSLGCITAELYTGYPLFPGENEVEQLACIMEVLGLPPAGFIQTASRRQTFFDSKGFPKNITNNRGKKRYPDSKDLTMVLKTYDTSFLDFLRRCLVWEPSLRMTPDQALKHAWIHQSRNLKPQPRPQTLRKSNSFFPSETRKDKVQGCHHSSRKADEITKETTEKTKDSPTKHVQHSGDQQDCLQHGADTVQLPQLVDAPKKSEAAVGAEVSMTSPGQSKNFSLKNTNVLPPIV
As to the kind of experiment: biochemical. It counts as cell-based, Sf9.

The target in data set [9] is Glycogen synthase kinase-3 beta (Homo sapiens, UniProt P49841). The data set is described as follows: biochemical. The class given is cell-based, Sf9.
Data set [10] deals with Dual specificity protein kinase CLK2 (Homo sapiens, UniProt P49760). The data set is described as follows: biochemical.
Data set [11] addresses Dual specificity protein kinase CLK4 (Homo sapiens, UniProt Q9HAZ1). As to the kind of experiment: biochemical.
For data set [12], the target named is T2, Dual specificity protein kinase CLK1. The data set is described as follows: biochemical. The class given is cell-based, Sf9. Particulars: read-out: IC50.
For data set [13] the target is unchanged.

T2 sequence (P49759 whole entry): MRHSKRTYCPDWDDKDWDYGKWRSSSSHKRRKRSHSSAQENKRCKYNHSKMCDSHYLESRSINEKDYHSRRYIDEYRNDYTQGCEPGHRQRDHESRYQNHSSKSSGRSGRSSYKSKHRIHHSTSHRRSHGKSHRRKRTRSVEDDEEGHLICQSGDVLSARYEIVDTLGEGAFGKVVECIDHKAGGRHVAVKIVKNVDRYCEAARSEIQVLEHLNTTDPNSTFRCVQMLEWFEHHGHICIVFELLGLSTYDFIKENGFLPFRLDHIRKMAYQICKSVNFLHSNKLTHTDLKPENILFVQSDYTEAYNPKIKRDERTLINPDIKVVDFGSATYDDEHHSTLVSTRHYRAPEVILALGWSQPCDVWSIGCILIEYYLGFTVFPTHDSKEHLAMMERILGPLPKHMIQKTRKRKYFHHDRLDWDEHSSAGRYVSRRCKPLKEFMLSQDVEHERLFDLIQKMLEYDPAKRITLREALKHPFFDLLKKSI
Chain of Glycogen synthase kinase-3 beta (P49841 whole entry): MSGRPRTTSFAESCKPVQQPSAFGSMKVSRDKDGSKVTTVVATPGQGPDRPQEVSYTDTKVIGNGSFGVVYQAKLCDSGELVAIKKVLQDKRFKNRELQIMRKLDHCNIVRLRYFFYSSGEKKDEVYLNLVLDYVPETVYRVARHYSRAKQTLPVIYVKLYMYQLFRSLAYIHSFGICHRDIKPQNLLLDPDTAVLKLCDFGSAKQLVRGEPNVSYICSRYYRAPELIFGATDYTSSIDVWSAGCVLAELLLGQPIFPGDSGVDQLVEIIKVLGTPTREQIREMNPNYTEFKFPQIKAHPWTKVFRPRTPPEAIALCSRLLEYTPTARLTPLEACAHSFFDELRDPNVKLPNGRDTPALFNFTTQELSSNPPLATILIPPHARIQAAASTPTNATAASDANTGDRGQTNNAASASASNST
Chain of Dual specificity protein kinase CLK4 (Q9HAZ1 whole entry): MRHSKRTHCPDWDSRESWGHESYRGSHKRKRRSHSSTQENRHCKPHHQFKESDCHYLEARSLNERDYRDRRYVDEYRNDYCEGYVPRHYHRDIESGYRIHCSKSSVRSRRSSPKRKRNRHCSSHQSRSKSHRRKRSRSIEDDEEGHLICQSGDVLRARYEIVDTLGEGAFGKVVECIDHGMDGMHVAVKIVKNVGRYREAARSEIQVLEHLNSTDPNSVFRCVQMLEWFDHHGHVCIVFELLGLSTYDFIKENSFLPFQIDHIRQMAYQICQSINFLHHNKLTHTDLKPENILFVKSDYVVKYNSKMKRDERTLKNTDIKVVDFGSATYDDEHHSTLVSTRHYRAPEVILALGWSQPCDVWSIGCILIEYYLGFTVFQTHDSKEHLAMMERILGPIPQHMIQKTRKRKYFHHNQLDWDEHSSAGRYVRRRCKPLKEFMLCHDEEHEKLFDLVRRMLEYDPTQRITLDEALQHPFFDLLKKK
Chain of Cyclin-dependent kinase 5/CDK5 activator 1 (Q00535 whole entry, canonical isoform): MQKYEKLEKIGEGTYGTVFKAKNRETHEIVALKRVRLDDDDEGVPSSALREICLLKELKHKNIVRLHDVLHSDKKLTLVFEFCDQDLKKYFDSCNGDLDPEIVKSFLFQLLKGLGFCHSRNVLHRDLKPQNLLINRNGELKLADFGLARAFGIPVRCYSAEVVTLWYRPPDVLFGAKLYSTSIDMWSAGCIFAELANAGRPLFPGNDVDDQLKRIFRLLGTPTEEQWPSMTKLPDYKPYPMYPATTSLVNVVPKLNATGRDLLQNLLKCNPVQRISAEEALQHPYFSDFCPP
Chain of Cyclin-dependent kinase 5/CDK5 activator 1 (Q15078 whole entry, further chain, canonical isoform): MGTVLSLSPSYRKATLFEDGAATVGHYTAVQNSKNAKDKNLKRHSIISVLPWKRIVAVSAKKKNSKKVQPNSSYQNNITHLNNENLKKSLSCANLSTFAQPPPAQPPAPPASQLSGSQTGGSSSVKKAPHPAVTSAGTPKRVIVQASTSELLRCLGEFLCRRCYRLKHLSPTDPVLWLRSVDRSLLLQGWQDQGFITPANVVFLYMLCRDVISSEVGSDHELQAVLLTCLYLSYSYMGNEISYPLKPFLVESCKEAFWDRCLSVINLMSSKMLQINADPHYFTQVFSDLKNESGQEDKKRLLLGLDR
Chain of Dual specificity protein kinase CLK3 (P49761 whole entry): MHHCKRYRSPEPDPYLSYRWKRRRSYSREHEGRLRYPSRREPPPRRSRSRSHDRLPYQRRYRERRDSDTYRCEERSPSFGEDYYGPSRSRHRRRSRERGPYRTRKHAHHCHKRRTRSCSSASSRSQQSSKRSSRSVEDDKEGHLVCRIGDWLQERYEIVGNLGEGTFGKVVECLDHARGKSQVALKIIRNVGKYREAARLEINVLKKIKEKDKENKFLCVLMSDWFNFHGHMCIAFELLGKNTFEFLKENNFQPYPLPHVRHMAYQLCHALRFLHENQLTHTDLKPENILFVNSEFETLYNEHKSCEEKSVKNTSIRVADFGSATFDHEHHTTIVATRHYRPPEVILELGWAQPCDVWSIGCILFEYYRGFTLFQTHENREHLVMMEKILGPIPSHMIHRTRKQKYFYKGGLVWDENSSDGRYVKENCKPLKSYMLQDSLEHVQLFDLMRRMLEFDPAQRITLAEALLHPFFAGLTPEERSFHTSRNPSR
Chain of Dual specificity protein kinase CLK2 (P49760 whole entry): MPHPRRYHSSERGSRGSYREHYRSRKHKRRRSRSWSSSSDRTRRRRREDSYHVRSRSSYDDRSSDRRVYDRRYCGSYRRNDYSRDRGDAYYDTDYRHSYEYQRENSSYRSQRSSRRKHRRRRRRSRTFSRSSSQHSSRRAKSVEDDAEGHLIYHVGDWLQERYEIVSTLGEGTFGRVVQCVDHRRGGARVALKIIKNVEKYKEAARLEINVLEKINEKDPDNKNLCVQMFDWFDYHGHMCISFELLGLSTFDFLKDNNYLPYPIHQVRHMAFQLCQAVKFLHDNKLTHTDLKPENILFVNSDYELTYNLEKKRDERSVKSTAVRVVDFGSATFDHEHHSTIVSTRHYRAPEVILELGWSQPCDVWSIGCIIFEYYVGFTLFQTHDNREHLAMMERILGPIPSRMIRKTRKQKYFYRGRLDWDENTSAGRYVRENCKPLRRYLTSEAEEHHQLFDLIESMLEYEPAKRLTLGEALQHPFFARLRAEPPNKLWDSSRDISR
Chain of Casein kinase I isoform epsilon (P49674 whole entry, canonical isoform): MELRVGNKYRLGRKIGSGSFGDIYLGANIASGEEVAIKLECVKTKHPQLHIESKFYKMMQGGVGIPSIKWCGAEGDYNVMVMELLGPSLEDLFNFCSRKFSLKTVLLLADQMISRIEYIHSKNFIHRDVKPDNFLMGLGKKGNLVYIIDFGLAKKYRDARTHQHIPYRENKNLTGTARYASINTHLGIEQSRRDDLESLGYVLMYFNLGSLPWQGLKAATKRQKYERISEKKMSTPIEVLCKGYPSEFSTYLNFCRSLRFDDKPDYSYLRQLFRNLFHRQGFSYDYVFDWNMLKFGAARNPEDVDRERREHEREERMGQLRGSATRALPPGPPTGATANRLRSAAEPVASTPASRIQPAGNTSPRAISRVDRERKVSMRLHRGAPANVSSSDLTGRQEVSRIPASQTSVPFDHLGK

In general, IC50 refers to the midpoint of a concentration-inhibition curve. `COc1ccc(-n2c(C)c([N+](=O)[O-])c3ccc(O)cc32)cc1`: the half-maximal inhibitory concentration (IC50) in data set [1], in data set [2] and in data set [3] was over 10 µM throughout. In data set [4], this compound came in with an IC50 at 48 h of over 100 µM.
For `COc1ccc(/C=C2\SC(=S)NC2=O)cc1C#C[Si](C)(C)C`, the IC50 in data set [1] is over 10 µM; in data set [2], over 10 µM; in data set [5], 8.31 µM; in data set [6], 7.23 µM; in data set [7], over 10 µM; in [3], over 10 µM. Also, the IC50 is over 10 µM in data set [8], over 10 µM in data set [9], 8.41 µM in data set [10] and over 10 µM in data set [11]. In data set [4], this compound showed an IC50 at 48 h of 64.8 µM.
As a reminder, the Kd is the constant that tells how readily two partners part at equilibrium. Lower therefore signals higher affinity. As to `CN1CCN(c2cc(C(=O)Nc3cc4cc(-c5cnn(C)c5)ccc4cn3)ccn2)CC1`, the IC50 in data set [1] is 3.96 µM; in data set [2], 3.01 µM; in [5] it was 0.0071 µM; in data set [12], 0.0091 µM; in [11], 0.0043 µM. The compound further registered a dissociation constant Kd in [13] of 0.018 nM. The IC50 at 48 h in data set [4] is 0.18 µM.
Regarding `Cc1nc2ccc(-c3cc(N)nc(N)c3)nc2n1CC(F)(F)F`, the IC50 in data set [1] was 0.414 µM; in data set [2], 1.77 µM; in [6], 1.11 µM; in [7] it was 0.0088 µM; in [3], over 10 µM; in data set [8] it was 0.426 µM. The IC50 was 0.0247 µM in data set [10] and 0.0162 µM in data set [11]. In addition, in data set [4], half-maximal inhibition (IC50 at 48 h) required 7.7 µM.
`COc1ccc2nc3c(CO)cc(OC)cc3c(SC[C@H]3CCNC3)c2c1`: the IC50 in [1] is over 10 µM; in data set [2] it was over 10 µM; in data set [5] it was 1.25 µM; in [6], 6.5 µM; in data set [8], 1.93 µM; in [9] it was over 10 µM. The IC50 in data set [10] was 4.29 µM; in data set [11], 0.537 µM. In [4], this compound came in with a half-inhibitory concentration (IC50) at 48 h of 14.7 µM.
On to `COc1ccc2sc(-c3cncc(NC(C)=O)c3)nc2c1`, for which the 50% inhibitory concentration (IC50) in [1] is over 10 µM; in data set [2], over 10 µM; in data set [5] it was 0.572 µM; in [6] it was over 10 µM; in data set [7] it was 1.46 µM; in [3], over 10 µM. In addition, the 50% inhibitory concentration (IC50) in [8] is over 10 µM; in [9], over 10 µM; in data set [12], 0.385 µM; in [10], 4.41 µM; in [11], 0.34 µM. Further, 100 µM corresponded to half-maximal inhibition in [4] (IC50 at 48 h).
In turn, `[H]/N=C(\N/C(=N/[H])NCCCCCCNC(=N)NC(=N)Nc1ccc(Cl)cc1)Nc1ccc(Cl)cc1` [CHLORHEXIDINE] had an IC50 at 48 h in [4] of 5.6 µM. In addition, the IC50 in [10] came out at 9.16 µM.
Turning to `COc1ccc2c(c1)[nH]c1c(C)nccc12` [HARMINE], the concentration for half-maximal inhibition (IC50) amounted to 8.81 µM in data set [6]; 3.17 µM in [7]; 2.86 µM in data set [3]; 8.36 µM in data set [8]; 1.15 µM in data set [10]; 0.102 µM in [11]. In data set [4], this compound yielded a 50% inhibitory concentration (IC50) at 48 h of 56.5 µM.
As to `CNCc1ccc(-c2[nH]c3cc(F)cc4c3c2CCNC4=O)cc1` [RUCAPARIB], the IC50 in [2] was over 10 µM; in data set [5], over 10 µM; in data set [6], over 10 µM; in data set [7], over 10 µM; in data set [3] it was 8.03 µM; in data set [8], over 10 µM. The concentration for half-maximal inhibition (IC50) in data set [10] and in data set [11] was over 10 µM in each case. For the same compound, the IC50 at 48 h in data set [4] worked out at 57 µM.
For the compound `O=C(O)c1ccc2c(c1)nc(Nc1cccc(Cl)c1)c1ccncc12` [SILMITASERTIB], the half-inhibitory concentration (IC50) in [1] is over 10 µM; in data set [2] it was over 10 µM; in data set [6], 0.0774 µM; in [7], 0.0992 µM; in data set [3], 0.0308 µM; in data set [8] it was 1.52 µM. Also, in data set [11], it took 0.0026 µM to reach half-maximal inhibition (IC50). In [4], this compound returned a half-inhibitory concentration (IC50) at 48 h of 21.3 µM.

(Values after ChEMBL document CHEMBL5247649, “Comparative Efficacy and Selectivity of Pharmacological Inhibitors of DYRK and CLK Protein Kinases” (J Med Chem, 2023).)
